Assay results reported in PubChem BioAssay AID651867 (The Scripps Research Institute Molecular Screening Center, 2012).

Target: Protein-arginine deiminase type-4 (Homo sapiens) (UniProt Q9UM07)
Experiment: PubChem AID 651867
Details: recombinant PAD4, BAEE citrulline colorimetric, time-dependent inactivation; at 10 µM; stronger effect = higher value

Chain of Protein-arginine deiminase type-4 (Homo sapiens) (Q9UM07 whole entry, looked up): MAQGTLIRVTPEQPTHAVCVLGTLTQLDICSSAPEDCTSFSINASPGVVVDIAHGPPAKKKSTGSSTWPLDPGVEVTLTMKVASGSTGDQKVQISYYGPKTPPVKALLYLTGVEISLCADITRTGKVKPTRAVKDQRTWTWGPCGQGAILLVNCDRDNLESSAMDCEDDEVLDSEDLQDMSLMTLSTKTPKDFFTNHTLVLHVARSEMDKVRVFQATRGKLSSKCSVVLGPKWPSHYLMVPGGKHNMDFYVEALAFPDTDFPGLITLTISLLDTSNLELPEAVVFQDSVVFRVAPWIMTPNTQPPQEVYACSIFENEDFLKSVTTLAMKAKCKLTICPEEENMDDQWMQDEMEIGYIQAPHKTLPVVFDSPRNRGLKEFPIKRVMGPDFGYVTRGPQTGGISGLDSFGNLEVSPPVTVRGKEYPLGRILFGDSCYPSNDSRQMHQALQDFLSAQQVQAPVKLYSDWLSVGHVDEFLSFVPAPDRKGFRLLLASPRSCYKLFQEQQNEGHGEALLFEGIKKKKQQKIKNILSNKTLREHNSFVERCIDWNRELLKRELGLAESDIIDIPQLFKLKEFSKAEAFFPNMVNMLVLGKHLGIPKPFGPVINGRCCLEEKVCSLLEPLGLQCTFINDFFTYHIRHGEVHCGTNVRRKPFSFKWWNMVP

kinact/KI: 88.3 M⁻¹ s⁻¹
Compound: NC1=CC(=O)c2ccc(-c3cccc(C(=O)O)n3)nc2C1=O
